The assay addresses Recombinant human ATX (Homo sapiens (Human), UniProt Q13822). In words: ATX inhibition assay (released choline, choline oxidase/HRP/Amplex Red fluorescence). Type of assay: biochemical. As for the experimental part: LPC (oleoyl (18:1)) was purchased from Avant: Polar Lipids (Alabaster, Ala.) and solubilized in methanol to 20 mM. Amplex Red was obtained from Invitrogen Life Technologies (Paisley, UK) and dissolved in DMSO to 10 mM. Choline oxidase and horseradish peroxidase (HRP) were obtained from Sigma Aldrich (Dorset, UK) and dissolved in HBSS to 20 U/ml and 200 U/ml respectively. AH reagents were stored at −20° C. in single use aliquots. All experimental measurements were performed in assay buffer made up immediately prior to use (HBSS, 0.01% BSA essentially fatty acid free).
Recombinant human ATX was prepared at Novartis (Basel, CH) in a human embryonic kidney (HEK) cell preparation, and stored in single use aliquots of […] (26 μM) stocks stored at −80° C.
All experimental measurements were performed in black 384 well polystyrene (low volume, round bottom, Corning (3676)) plates. PerkinElmer EnVision (Fluorescence Intensity/Absorbance Monochromator) or Tecan Infinite 200 PRO series plate reader was used to detect change in fluorescent intensity.
ATX activity was determined by measurement of released choline in reactions containing ATX (10 nM), choline oxidase (0.1 U/ml), HRP (100 U/ml), amplex red (50 μM) and LPC 18:1 (10 μM). Compounds of the invention were prepared as 10 point serial dilutions from 1 μM in duplicate and pre-incubated with ATX at 37° C. for 20 minutes prior to the addition of remaining reagents. The liberated choline was measured from changes in fluorescence intensity (λex 530 nm, λem 590 nm) of the product resurofin at 37° C. every 2 minutes over a 40-minute period. ATX activity was measured as a slope of the linear portion of the progress curve, typically between 14 to 24 minutes.
Slope data was exported to Graphpad prism (Graphpad software, San Diego, Calif.) where data was fitted to equation 1. Y=Bottom+(Top−Bottom)/(1+10^((Log IC50−X)*HillSlope)) Equation 1: […]

This passage reports IC50 results from patent publication US9409895B2, “Autotaxin inhibitors” (Novartis AG, priority 2012, dated 2016).

Read-outs that look alike come from different tables or passages of the source. Where only a bound is given, the exact number is not on record here.

One may read the IC50 as the midpoint of a concentration-inhibition curve. Regarding `CN(CCC1CCN(C(=O)OCc2cc(Cl)cc(C#N)c2)CC1)C(=O)c1c[nH]nn1` [Example 36, 3-Chloro-5-cyanobenzyl 4-(2-(N-methyl-1H-1,2,3-triazole-4-carboxamido)ethyl)piperidine-1-carboxylate], the IC50 (ATX 10 nM, LPC 18:1 10 μM, 37° C., 20 min pre-incubation, mean of n 2) was determined as 1000 nM.
In the case of “(S)-3,5-Dichlorobenzyl 3-(4-(1H-1,2,3-triazol-4-yl)butanamido)pyrrolidine-1-carboxylate or (R)-3,5-Dichlorobenzyl 3-(4-(1H-1,2,3-triazol-4-yl)butanamido)pyrrolidine-1-carboxylate [Example 49a]”, the IC50 was over 1000 nM.
As for “(S)-3,5-Dichlorobenzyl 3-(4-(1H-1,2,3-triazol-4-yl)butanamido)pyrrolidine-1-carboxylate or (R)-3,5-Dichlorobenzyl 3-(4-(1H-1,2,3-triazol-4-yl)butanamido)pyrrolidine-1-carboxylate [Example 49b]”, the IC50 was determined as 263 nM.
